ChEMBL document CHEMBL5226392, “Anti-inflammatory Quinoline Alkaloids from the Roots of Waltheria indica” (J Nat Prod, 2023)

tested on: RAW264.7; assay: Inhibition of NO production in LPS-stimulated mouse RAW264.7 cells at 50 uM preincubated for 15 mins followed by LPS stimulation and measured after 20 hrs by Griess reagent based assay relative to control; type: functional; conditions: RAW264.7, 20.25 h, time 1215 min

SMILES	inhibition at 50 µM
CC[C@H](C)[C@@H]1NC(=O)[C@H](NC(=O)/C=C/c2ccccc2)[C@H](c2ccccc2)Oc2ccc(cc2)/C=C\NC1=O	58.5%
CCCCCCCC[C@H]1CC[C@@H](OC)c2[nH]c(C)c(OC)c(=O)c21	60.3%
CCCCCCCC[C@H]1CCC(=O)c2[nH]c(CO)c(OC)c(=O)c21	89.9%
COc1c(C)[nH]c2c(OC)ccc(CCCCCCC(C)=O)c2c1=O	63.8%
COc1c(CO)[nH]c2c(c1=O)[C@@H](CCCCCc1ccccc1)CCC2=O	79.1%
COc1c(C)[nH]c2ccc3c(c2c1=O)[C@@H]1CCC[C@@]3(c2ccccc2)O1	58.7%
COc1c(C)[nH]c2c(c1=O)[C@H](CCCCCc1ccccc1)CCC2	99.1%
COc1c(C)[nH]c2cccc(CCCCCc3ccccc3)c2c1=O	97.9%
COc1c(C)[nH]c2c(c1=O)[C@@H](CCCCCc1ccccc1)CC[C@H]2OC	< 50%
O=C1N/C=C\c2ccc(cc2)O[C@@H](c2ccccc2)[C@H](NC(=O)[C@@H]2CCCN2C(=O)/C=C/c2ccccc2)C(=O)N[C@H]1Cc1ccccc1	63.7%
COc1ccccc1[C@]1(O)c2ccc3[nH]c(C)c(OC)c(=O)c3c2[C@@H]2CC[C@H]1O2	< 50%
CCCCCCCCc1ccc(O)c2[nH]c(C)c(OC)c(=O)c12	< 50%
CCCCCCC[C@@H](O)c1ccc(OC)c2[nH]c(C)c(OC)c(=O)c12	86.5%
CCCCCCC[C@H](O)c1ccc(OC)c2[nH]c(C)c(OC)c(=O)c12	91.7%

tested on: RAW264.7; assay: Inhibition of NO production in LPS-stimulated mouse RAW264.7 cells preincubated for 15 mins followed by LPS stimulation and measured after 20 hrs by Griess reagent based assay; type: functional, cell-based; conditions: not given

SMILES	IC50
CC[C@H](C)[C@@H]1NC(=O)[C@H](NC(=O)/C=C/c2ccccc2)[C@H](c2ccccc2)Oc2ccc(cc2)/C=C\NC1=O	43 µM
CCCCCCCC[C@H]1CC[C@@H](OC)c2[nH]c(C)c(OC)c(=O)c21	42.9 µM
COc1c(C)[nH]c2ccc3c(c2c1=O)[C@@H]1CCC[C@@]3(c2ccccc2)O1	35.7 µM
COc1c(C)[nH]c2c(c1=O)[C@H](CCCCCc1ccccc1)CCC2	12.8 µM

More lines, now with the values ahead:

IC50	SMILES
22.7 µM	CNC(=N)NCCC[C@H](N)C(=O)O
25.4 µM	CCCCCCCC[C@H]1CCC(=O)c2[nH]c(CO)c(OC)c(=O)c21
35.6 µM	COc1c(C)[nH]c2c(OC)ccc(CCCCCCC(C)=O)c2c1=O
31 µM	COc1c(CO)[nH]c2c(c1=O)[C@@H](CCCCCc1ccccc1)CCC2=O
11.4 µM	COc1c(C)[nH]c2cccc(CCCCCc3ccccc3)c2c1=O
32 µM	O=C1N/C=C\c2ccc(cc2)O[C@@H](c2ccccc2)[C@H](NC(=O)[C@@H]2CCCN2C(=O)/C=C/c2ccccc2)C(=O)N[C@H]1Cc1ccccc1
25.8 µM	CCCCCCC[C@@H](O)c1ccc(OC)c2[nH]c(C)c(OC)c(=O)c12
25.8 µM	CCCCCCC[C@H](O)c1ccc(OC)c2[nH]c(C)c(OC)c(=O)c12

tested on: not listed separately; assay: Cytotoxicity against LPS-stimulated mouse RAW264.7 cells assessed as cell survival at 50 uM preincubated for 15 mins followed by LPS stimulation and measured after 20 hrs by CCK-8 assay relative to control; type: toxicity, cell-based; conditions: LPS-stimulated RAW264.7 cells, time 1215 min, read-out: Activity

SMILES	viability at 20 h, 50 µM
CC[C@H](C)[C@@H]1NC(=O)[C@H](NC(=O)/C=C/c2ccccc2)[C@H](c2ccccc2)Oc2ccc(cc2)/C=C\NC1=O	100%
CCCCCCCC[C@H]1CC[C@@H](OC)c2[nH]c(C)c(OC)c(=O)c21	51.4%
CCCCCCCC[C@H]1CCC(=O)c2[nH]c(CO)c(OC)c(=O)c21	50.9%
COc1c(C)[nH]c2c(OC)ccc(CCCCCCC(C)=O)c2c1=O	86.5%
COc1c(CO)[nH]c2c(c1=O)[C@@H](CCCCCc1ccccc1)CCC2=O	50.8%
COc1c(C)[nH]c2ccc3c(c2c1=O)[C@@H]1CCC[C@@]3(c2ccccc2)O1	100%
COc1c(C)[nH]c2c(c1=O)[C@H](CCCCCc1ccccc1)CCC2	61%
COc1c(C)[nH]c2cccc(CCCCCc3ccccc3)c2c1=O	< 50%
COc1c(C)[nH]c2c(c1=O)[C@@H](CCCCCc1ccccc1)CC[C@H]2OC	57.2%
O=C1N/C=C\c2ccc(cc2)O[C@@H](c2ccccc2)[C@H](NC(=O)[C@@H]2CCCN2C(=O)/C=C/c2ccccc2)C(=O)N[C@H]1Cc1ccccc1	100%
COc1ccccc1[C@]1(O)c2ccc3[nH]c(C)c(OC)c(=O)c3c2[C@@H]2CC[C@H]1O2	100%
CCCCCCCCc1ccc(O)c2[nH]c(C)c(OC)c(=O)c12	70.2%
CCCCCCC[C@@H](O)c1ccc(OC)c2[nH]c(C)c(OC)c(=O)c12	84.9%
CCCCCCC[C@H](O)c1ccc(OC)c2[nH]c(C)c(OC)c(=O)c12	64.7%

tested on: not listed separately; assay: Cytotoxicity against LPS-stimulated mouse RAW264.7 cells assessed as cell growth inhibition preincubated for 15 mins followed by LPS stimulation and measured after 20 hrs by CCK-8 assay; type: toxicity, cell-based; conditions: LPS-stimulated RAW264.7 cells

SMILES	IC50 at 20 h
COc1c(C)[nH]c2cccc(CCCCCc3ccccc3)c2c1=O	33.3 µM

tested on: not listed separately; assay: Antiinflammatory activity in human 293/NFkB-Luc cells assessed as inhibition of TNF-alpha induced NFkaapaB activity at 50 uM preincubated for 15 mins followed by TNF-alpha induction and measured after 6 hrs by luminescence based assay relative to control; type: functional; conditions: 6.25 h, time 375 min

SMILES	inhibition at 50 µM
CC[C@H](C)[C@@H]1NC(=O)[C@H](NC(=O)/C=C/c2ccccc2)[C@H](c2ccccc2)Oc2ccc(cc2)/C=C\NC1=O	< 50%
CCCCCCCC[C@H]1CC[C@@H](OC)c2[nH]c(C)c(OC)c(=O)c21	< 50%
CCCCCCCC[C@H]1CCC(=O)c2[nH]c(CO)c(OC)c(=O)c21	< 50%
COc1c(C)[nH]c2c(OC)ccc(CCCCCCC(C)=O)c2c1=O	< 50%
COc1c(CO)[nH]c2c(c1=O)[C@@H](CCCCCc1ccccc1)CCC2=O	71.1%
COc1c(C)[nH]c2ccc3c(c2c1=O)[C@@H]1CCC[C@@]3(c2ccccc2)O1	78%
COc1c(C)[nH]c2c(c1=O)[C@H](CCCCCc1ccccc1)CCC2	81.6%
COc1c(C)[nH]c2cccc(CCCCCc3ccccc3)c2c1=O	77.5%
COc1c(C)[nH]c2c(c1=O)[C@@H](CCCCCc1ccccc1)CC[C@H]2OC	< 50%
O=C1N/C=C\c2ccc(cc2)O[C@@H](c2ccccc2)[C@H](NC(=O)[C@@H]2CCCN2C(=O)/C=C/c2ccccc2)C(=O)N[C@H]1Cc1ccccc1	< 50%
COc1ccccc1[C@]1(O)c2ccc3[nH]c(C)c(OC)c(=O)c3c2[C@@H]2CC[C@H]1O2	< 50%
CCCCCCCCc1ccc(O)c2[nH]c(C)c(OC)c(=O)c12	< 50%
CCCCCCC[C@@H](O)c1ccc(OC)c2[nH]c(C)c(OC)c(=O)c12	< 50%
CCCCCCC[C@H](O)c1ccc(OC)c2[nH]c(C)c(OC)c(=O)c12	< 50%

tested on: not listed separately; assay: Antiinflammatory activity in human 293/NFkB-Luc cells assessed as inhibition of TNF-alpha induced NFkaapaB activity preincubated for 15 mins followed by TNF-alpha induction and measured after 6 hrs by luminescence based assay; type: functional, cell-based; conditions: not given

SMILES	IC50
COc1c(C)[nH]c2ccc3c(c2c1=O)[C@@H]1CCC[C@@]3(c2ccccc2)O1	7.1 µM
COc1c(C)[nH]c2c(c1=O)[C@H](CCCCCc1ccccc1)CCC2	10.1 µM

Continued, values first:

IC50	SMILES
9.7 µM	Cc1ccc(S(=O)(=O)/C=C/C#N)cc1
11.9 µM	COc1c(CO)[nH]c2c(c1=O)[C@@H](CCCCCc1ccccc1)CCC2=O
10.2 µM	COc1c(C)[nH]c2cccc(CCCCCc3ccccc3)c2c1=O

tested on: not listed separately; assay: Cytotoxicity against TNF-alpha induced human 293/NFkB-Luc cells assessed as increase in cell survival at 50 uM preincubated for 15 mins followed by TNF-alpha induction and measured after 6 hrs by MTT assay relative to control; type: toxicity, cell-based; conditions: TNF-alpha induced 293/NFkB-Luc cells, time 375 min, read-out: Activity

SMILES	viability at 6 h, 50 µM
CC[C@H](C)[C@@H]1NC(=O)[C@H](NC(=O)/C=C/c2ccccc2)[C@H](c2ccccc2)Oc2ccc(cc2)/C=C\NC1=O	100%
CCCCCCCC[C@H]1CC[C@@H](OC)c2[nH]c(C)c(OC)c(=O)c21	90.3%
CCCCCCCC[C@H]1CCC(=O)c2[nH]c(CO)c(OC)c(=O)c21	93.1%
COc1c(C)[nH]c2c(OC)ccc(CCCCCCC(C)=O)c2c1=O	75.8%
COc1c(CO)[nH]c2c(c1=O)[C@@H](CCCCCc1ccccc1)CCC2=O	100%
COc1c(C)[nH]c2ccc3c(c2c1=O)[C@@H]1CCC[C@@]3(c2ccccc2)O1	89%
COc1c(C)[nH]c2c(c1=O)[C@H](CCCCCc1ccccc1)CCC2	91.8%
COc1c(C)[nH]c2cccc(CCCCCc3ccccc3)c2c1=O	76.7%
COc1c(C)[nH]c2c(c1=O)[C@@H](CCCCCc1ccccc1)CC[C@H]2OC	69.9%
O=C1N/C=C\c2ccc(cc2)O[C@@H](c2ccccc2)[C@H](NC(=O)[C@@H]2CCCN2C(=O)/C=C/c2ccccc2)C(=O)N[C@H]1Cc1ccccc1	76.6%
COc1ccccc1[C@]1(O)c2ccc3[nH]c(C)c(OC)c(=O)c3c2[C@@H]2CC[C@H]1O2	86.7%
CCCCCCCCc1ccc(O)c2[nH]c(C)c(OC)c(=O)c12	83.6%
CCCCCCC[C@@H](O)c1ccc(OC)c2[nH]c(C)c(OC)c(=O)c12	72.6%
CCCCCCC[C@H](O)c1ccc(OC)c2[nH]c(C)c(OC)c(=O)c12	75.6%
